Legend:
[1] = test system: tetramer+ CD8+ T cells; experiment: Tetramer staining of CD8+ T cells in immunized naive non-tumor-bearing mice; type: in vivo, BALB/cJ mice; settings: for CD8+ T cell response by tetramer staining (in words): immunized naive, non-tumor-bearing mice; for Tetramer+ cells of total CD8+ T cells, blood: blood harvested 1 week after second immunization
Description: In parallel, naive, non–tumor-bearing mice immunized with the neoepitopes were tested for CD8^+ T cell responses to 7 of the 8 neoepitopes. ELISpot assays could not be performed because of the high background generated by incubation of T cells with any DCs. […] Tetramer staining was therefore used for better sensitivity and specificity (Figure 2D). (Tetramers against the neoepitope MAPVRTASM derived from Aebp1 gene could not be made.) Blood and the spleen of the immunized mice were harvested 1 week after the second immunization and stained for CD3, CD8, as well as specific binding to neoepitope tetramers (Figure 2, D and E). Of the 2 neoepitopes able to strongly elicit tumor rejection (TGAARFDEF and AYMKMLSSSL), only TGAARFDEF elicited a measurable CD8^+ T cell response as detected by tetramer staining. […] Of these, the response elicited by VGPEILSSL (derived from Trib3) was the strongest CD8^+ T cell response among all neoepitopes; approximately 10% of the CD8^+ T cells (in blood) in mice immunized with it were tetramer^+. As controls, we measured, in 2 instances, tetramer response in mice immunized with an irrelevant neoepitope; such nonspecific response was never detected.
(§1) The antibody specific for Fixable Viability Dye eFluor 780 was purchased from eBioscience. PE tetramer specific for each neoepitope was synthesized, validated, and tested by MBL International Corporation. Tetramer testing was performed prior to product release according to standard operating procedures of MBL, and the tetramers were further tested for specificity in our laboratory. The FITC-labeled antibody specific for CD8 (clone KT15) was purchased from the same company. BV510 CD3 (clone 17A2) was purchased from Biolegend. Mouse FcR blocking reagent was purchased from Miltenyi Biotec. Flow cytometry was performed using Miltenyi Biotec MACSQuant analyzer. The analysis was done using FlowJo software (FlowJo LLC).

[2] = test system: Meth A fibrosarcoma tumor cells; experiment: Tumor rejection after immunization with neoepitope-pulsed BMDCs and Meth A challenge; type: in vivo, BALB/cJ mice; settings: for Tumor rejection activity (in words): immunized twice 1 week apart with neoepitope-pulsed BMDCs (3 × 10^6), challenge with 95,000 Meth A cells 1 week later, CTLA4 blockade except TGAARFDEF
Source text: The 8 MS-defined neoepitopes were used to immunize naive BALB/cJ mice twice, 1 week apart, with neoepitope-pulsed bone marrow–derived dendritic cells (BMDCs, 3 × 10^6) as adjuvants, as previously published ([22]). All mice were challenged with 95,000 Meth A tumor cells 1 week after the second immunization, and tumor growth was monitored in individual mice (Figure 2, A and B). […] The TCI score parameterizes the tumor rejection, tumor inhibition, and tumor stability scores to produce a total TCI score, which reflects the control of the tumor growth in each group.
Day 7 BMDCs were pulsed with 40 μg of the neoepitope (1 μL of a 20 mM neoepitope solution was added to 7.5 million BMDCs in 200 μL RPMI medium for final peptide concentration of 100 μM). The pulsed BMDCs were washed 4 times and used to immunize a single mouse. Mice were randomized before being used for immunization with individual peptides to control for any cage effects. All immunizations were performed in the presence of CTLA4 blockade, using the […] (clone 9D9, Bio X Cell), administered with the second immunization and every 3 days after tumor challenge except for peptide TGAARFDEF. Tumor diameters were measured in 2 dimensions and the average diameter determined.
TCI quantitates and integrates all 3 aspects of tumor growth: inhibition, period of tumor size stability, and tumor shrinkage (complete response), as published previously ([23]).

[3] = test system: tetramer+ CD8+ T cells; experiment: Tetramer staining of CD8+ T cells in non-immunized tumor-bearing mice; type: in vivo, BALB/cJ mice; settings: unimmunized Meth A tumor-bearing mice, blood and spleen
Description: Thus, of the 7 neoepitopes tested, 4 neoepitopes elicited expansion of tetramer^+ CD8^+ T cells on immunization of naive, non–tumor-bearing mice (Figure 2E). We now examined CD8^+ T cell responses to the 4 neoepitopes in unimmunized, tumor-bearing mice (Figure 2F). […] As controls, CD8 cells from mice bearing an antigenically irrelevant tumor (4T1) were tested for tetramer response to all 7 neoepitopes; no response was detected. Altogether, CD8^+ T cell responses in non-immunized tumor-bearing mice and immunized tumor-naive mice were often discordant.
as §1

[4] = test system: IFN-γ+ CD8+ cells; experiment: IFN-γ+ CD8+ cells from mice immunized with individual peptides; type: in vivo, BALB/cJ mice; settings: data not shown
[5] = test system: Meth A fibrosarcoma tumor cells; experiment: CD8 depletion in vivo during priming of neoepitope-immunized mice; parameters: species or system BALB/cJ mice; settings: 250 μg anti-CD8 depleting antibody or isotype control 6 days before first immunization (priming phase)
Description: CD8 dependence of neoepitope-elicited tumor immunity was tested in the case of the peptide TGAARFDEF (derived from Gtf2b) by depletion of neoepitope-immunized mice by anti-CD8 depleting antibody or an isotype control antibody during the priming phase alone, as described in the Methods. […] The kinetics of recovery of the depleted CD8^+ cells in mice is not uniform, resulting in lack of abrogation of immunity in 2 of the 5 mice. Because depletion of CD4^+ T cells results in depletion of helper as well as regulatory CD4^+ T cells, and the 2 effects are contradictory, depletion of CD4^+ cells was not attempted.
BALB/cJ mice were injected with 250 μg of isotype control (InVivoMAb rat IgG2b isotype control, Bio X Cell) or CD8-depleting antibody (InVivoMAb anti–mouse CD8α, rat IgG2b, clone 2.43, Bio X Cell) antibodies 6 days before the first immunization (priming phase). The CD8^+ cells remained completely depleted in all mice until day 6; after that the recovery was variable.

[6] = neoepitope-pulsed BMDC immunization, 95,000 Meth A cells challenge

Sequence: AYMKMLSSSL
- CD8+ T cell response by tetramer staining (in words) [1]: did not elicit a measurable CD8^+ response
- Immunized mice able to reject the tumor completely [2, 6]: 60%
- Immunized mice with relatively prolonged tumor stabilization [2, 6]: 30%

Sequence: IGPRALDVL
- CD8+ T cell response by tetramer staining (in words) [1]: good tetramer CD8^+ T cell response
- CD8+ T cell response by tetramer staining (in words) [3]: significant CD8^+ T cell response
- Tumor rejection activity (in words) [2]: intermediate tumor rejection

Sequence: IGPRAVDVL [reference compound]
- Tetramer+ cells (CD8+ T cell response), tissue not stated ([1]; immunized naive mice, 1 week after second immunization): ~ 0.35%
- Tumor rejection activity (in words) [2]: intermediate tumor rejection activity

Sequence: KYLQVASHV
- Tumor rejection activity (in words) [2]: inactive

Sequence: KYLQVASHVGL
- CD8+ T cell response by tetramer staining (in words) [1]: strong CD8^+ T cell response
- CD8+ T cell response by tetramer staining (in words) [3]: did not elicit such a response
- Tumor rejection activity (in words) [2]: did not elicit tumor rejection

Sequence: SYLLGSGEARL
- Immunized mice able to reject the tumor completely [2, 6]: about 50%

Sequence: TGAARFDEF
- IFN-γ+ CD8+ cell response [4]: a specific response was detected
- CD8 dependence of neoepitope-elicited tumor immunity [5]: completely abolished the neoepitope-elicited tumor rejection in 3 of the 5 mice
- Tetramer+ cells of total CD8+ T cells, blood ([1]; immunized naive mice): approximately 0.7%
- Tetramer+ cells of total CD8+ T cells, spleen ([1]; immunized naive mice, spleen harvested 1 week after second immunization): ~0.43%
- CD8+ T cell response by tetramer staining (in words) [3]: could not detect a measurable CD8^+ T cell response
- Tumor rejection activity (in words) [2]: complete tumor rejection

Sequence: VGPEILSSL
- Tetramer+ cells of total CD8+ T cells, blood ([1]; immunized naive mice): approximately 10%
- CD8+ T cell response by tetramer staining (in words) [3]: significant CD8^+ T cell response
- Tumor rejection activity (in words) [2]: no tumor rejection

Sequence: YIRPFETKVK
- Tumor Rejection Score (max score = 5) ([2]; BALB/cJ mice immunized with peptide-pulsed BMDCs, Meth A challenge, Table 2): 4.5

— article PMC6675551, “Mass spectrometry–driven exploration reveals nuances of neoepitope-driven tumor rejection” (JCI Insight, 2019)
